# According to the METLIN SMRT retention time set (Domingo-Almenara et al. 2019):
# Experiment: gradient 5% acetonitrile 3 min, to 50% in 2 min, to 85% in 15 min, held 3 min, 100 µL/min
# Conditions: column: Zorbax Extend-C18 2.1 x 50 mm; eluents: water / acetonitrile, 0.1% formic acid
# Procedure, shortened: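 In both positive and negative ionization mode, a quadrupole time-of-flight mass spectrometer coupled to HPLC analyzed pure standards run in mixtures of ~100 molecules. The Zorbax Extend-C18 column (2.1 × 50 mm, 1.8 μm) was operated at 100 μL/min with water and acetonitrile, each containing 0.1% formic acid. The dead volume was 40 μL and the dwell volume 900 μL. Retention time came from adduct peaks that were computationally picked and individually inspected by hand.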
row,SMILES,RP-LC retention time [s]
1,O=C(NCCCn1nc(-c2ccc(F)cc2)ccc1=O)Nc1cc(Cl)ccc1Cl,566
2,COc1cccc(OC)c1C(=O)Nc1ccc2c(c1)Sc1ncccc1C(=O)N2C(C)C,883
3,COCCN1C(=O)c2ccccc2C(C(=O)NCc2ccc(F)cc2)C12CCCC2 (stereo unspecified),879
4,O=C(CCc1nc2ccccc2n(CC(=O)Nc2ccc3c(c2)OCO3)c1=O)NCc1ccccc1,797
5,CCC(C)NC(=O)CCNc1c(-c2ccc(C)cc2)nc2cnccn12 (stereo unspecified),672
6,CCCN1C(=O)COc2ccc(-c3noc(-c4ccc(C#N)cc4)n3)cc21,1130
7,CCCC(NC(=O)c1ccc(OC)cc1)C(=O)Nc1nc2ccccc2[nH]1 (stereo unspecified),658
8,CCc1ccc(-c2ccc(=O)n(Cc3nc(-c4ccc5c(c4)OCO5)no3)n2)cc1,1080
9,Cc1ccc(-c2cc3n(n2)CCCN(C(=O)c2n[nH]c4ccccc24)C3)cc1,850
10,O=C(C1CCN(c2ncnc3c2oc2ccccc23)CC1)N1CCC(Cc2ccccc2)CC1,995
11,O=c1n(Cc2cccc(C(F)(F)F)c2)nc2c(S(=O)(=O)N3CCCCC3)cccn12,993
12,Cc1nn(-c2nc(-c3ccccc3)cs2)c(C)c1CC(=O)Nc1ccccc1,1130
13,CCOc1ccc(-c2nc3ncccn3c2NCc2ccc(Cl)cc2)cc1OC,760
14,Cc1ncnc2c1CCC(=O)N2Cc1cccnc1,539
15,CC(=O)c1cccc(NC(=O)c2ncn(-c3ccccc3)n2)c1,731
16,CNC(=O)c1nc(C(=O)NCc2ccc(C)cc2)cs1,739
17,CSc1nnc(-c2nn(C)c3c2CN(C(=O)c2ccccc2Br)CC3)n1C,717
18,CCOC(=O)c1cc(S(=O)(=O)N2CCCC2C(=O)Nc2ccccc2C(F)(F)F)cn1C (stereo unspecified),999
19,O=c1ccc(-c2ccc3c(c2)OCO3)nn1Cc1nc(-c2ccc3c(c2)OCO3)no1,934
20,Cn1c(=O)c2ccnn2c2ccc(C(=O)NCc3ccccc3)cc21,665
21,O=C(C1CN(S(=O)(=O)c2ccccc2)CC12CCCCC2)N1CCOCC1 (stereo unspecified),840
22,O=C(c1ccc2c(c1)OCO2)N1CCCCC1c1nncn1CC1CC1 (stereo unspecified),631
23,O=C(Cc1ccsc1)Nc1ccc2c(c1)CCC(=O)N2,662

row,SMILES,RP-LC retention time [s]
1,CC(C)c1cc(C(=O)N2Cc3ccc(CN4CCN(C)CC4)cc3C2)c(O)cc1O,654
2,CCOc1ccc(NC(=O)Cn2nc3cc(-c4ccccc4)nc(C)n3c2=O)cc1,838
3,O=C(CSc1nnc(NC(=O)c2cccc([N+](=O)[O-])c2)s1)Nc1nccs1,702
4,Cc1nnc(-c2cc(NC(=O)c3cccc(Br)c3)c(C)s2)o1,938
5,COc1ccc(-c2nnc(CC(=O)N3CCOCC3)o2)cc1,647
6,CCOC(=O)Cn1c(-c2nnc(C)o2)cc2ccccc21,827
7,CC(=O)Nc1ccc(N(Cc2nnc3n2CCCCC3)C(=O)Nc2cccc(Cl)c2)cc1,691
8,O=C(NC1CC1)c1nc(C(=O)N2CCN(c3ccccn3)CC2)cs1,559
9,Cc1cccc2c(C(=O)NC(C)C)cc(N(C)C)nc12,614
10,COc1cc(NC(=O)N2CCC(n3c(C)nc4cccnc43)CC2)cc(OC)c1OC,569
11,O=C(NCCCN1CCOCC1)c1nc2ccccn2c1-c1ccc(Cl)cc1,629
12,COC(=O)c1ccc(-c2csc(NC(=O)c3cc(C)no3)n2)cc1,846
13,CCN(CC)C(=O)N1CC(Cn2c(C)cnc2-c2ccncc2)C1,568
14,O=c1[nH]cc(S(=O)(=O)N2CCCCCC2)c(=O)[nH]1,650
15,Cc1cc2c(=O)n(CC(=O)Nc3ccc(Cl)cc3)c3cccnc3n2n1,745
16,Cc1nc2c(NS(=O)(=O)c3ccc(F)cc3)cccn2n1,715
17,Cc1cc(C)cc(NC(=O)c2cn3c(n2)CCCC3)c1,644
18,CCCCNC(=O)C1(c2ccc(NC(C)=O)cc2)CCC1,704
19,CN1CCC(OC2CCN(C(=O)c3ccc(Br)cc3)CC2)CC1,615
20,Cc1ccc(CNC(=O)C2CCN(Cc3cc4ccccc4n3Cc3ccccc3C)CC2)o1,800
21,CCNC(=O)c1[nH]c2ccccc2c1N1CCCC1=O,657
22,Cc1ccc(NC(=O)Cc2cn3cc(F)ccc3n2)c(C)c1,610
23,Cc1ccc2c(c1)N(Cc1nc(-c3cccc(Br)c3)no1)C(=O)CO2,1180

row,SMILES,RP-LC retention time [s]
1,Cc1cccc(S(=O)(=O)N2CCC(c3nc(C(=O)N4CCOCC4)c(C)o3)CC2)c1,819
2,Cc1noc(-c2nc(-c3ccc(OC(C)C)cc3)no2)n1,1120
3,O=C1C[C@@H]2OCC=C3C[N+]4([O-])CC[C@]56c7ccccc7N1[C@H]5[C@H]2[C@H]3C[C@@H]64 (stereo partly specified),639
4,CN1C(=O)c2cccn2CC1CNC(=O)NCc1ccc(F)cc1 (stereo unspecified),658
5,CCOc1ccccc1NC(=O)N1CCN(c2ccc(=O)n(-c3ccccc3)n2)CC1,851
6,CCCNC(=O)N1CCC(N2CCN(Cc3cccc(F)c3)C(=O)C2=O)CC1,651
7,COCCn1ncc(N2CCC(C(=O)Nc3cc(OC)cc(OC)c3)C2)cc1=O (stereo unspecified),684
8,Cc1nn(-c2ccccc2)c(C)c1S(=O)(=O)N1CCC(C(=O)NCCc2ccccc2)CC1,812
9,COC(=O)c1ccccc1NCCO,787
10,C[C@H]1CN(C(=O)Cc2ccccc2F)C[C@@H]1c1nc(-c2cccnc2)no1,795
11,C[C@](O)(COc1ccc(C#N)cc1)C(=O)Nc1ccc(C#N)c(C(F)(F)F)c1,972
12,COc1ccc(CN2CCC3(CC2)CC(C)(O)CCO3)cc1OC (stereo unspecified),583
13,COc1ccc(Cc2nnc3sc(-c4cnccn4)nn23)cc1,730
14,O=C(Nc1ccccc1Br)N1CCc2nc(-c3ccc(Cl)cc3)ncc2C1,1130
15,CCCCN(CCCC)C(=O)C1CCN(S(=O)(=O)c2ccc3c(c2)CCCC(=O)N3)CC1,905
16,O=C(CSc1nccc2c1ccn2Cc1ccc(F)cc1)NCc1ccco1,1040
17,CCCN1CCN(C(=O)CN2C(=O)CCCc3cc(S(=O)(=O)N4CCOCC4)ccc32)CC1,590
18,Cc1ccc(-c2noc(C3CC(=O)N(c4ccc(Cl)cc4)C3)n2)cc1 (stereo unspecified),1060
19,COC(=O)c1cn(CC(=O)NC(C)c2ccc3c(c2)OCCCO3)c2ccccc12 (stereo unspecified),835
20,Clc1ccc(-c2nnc(-c3cccnc3NCc3cccs3)o2)cc1,1310
21,COc1ccccc1NC(=O)C1CC(=O)N(c2n[nH]c3cccc(F)c23)C1 (stereo unspecified),728
22,CC1CCC(C(=O)Nc2cc3c(cc2N2CCCCC2)n(C)c(=O)c(=O)n3C)CC1 (stereo unspecified),1050
23,O=C(CC1CCN(C(=O)c2ccc3oc(-c4ccccc4)nc3c2)CC1)NCCN1CCOCC1,630

row,SMILES,RP-LC retention time [s]
1,COc1cccc(NC(=O)Nc2nccn(-c3ccc(Br)cc3)c2=O)c1,983
2,COc1cccc(S(=O)(=O)N2CCCC(c3nn[nH]n3)C2)c1 (stereo unspecified),717
3,COc1ccc(N2CCN(CCNC(=O)c3ccc(S(=O)(=O)N(C)C)cc3)CC2)cc1,589
4,CC1(C(=O)NCc2ccc(F)cc2)CN(S(=O)(=O)c2ccccc2)CC(=O)N1C1CC1 (stereo unspecified),816
5,Cn1cnc(S(=O)(=O)N2CCC(C(=O)Nc3cccc(Br)c3)CC2)c1,741
6,CCn1cc(CC(=O)NCc2cccc(OC)c2)c2cccnc21,695
7,Cc1cccc(NC(=O)C2CCN(S(=O)(=O)c3cc(C(=O)N4CCOCC4)cs3)CC2)n1,648
8,CC(=O)N1CCc2nn(CC(=O)Nc3ccc(Cl)cc3F)c(=O)cc2C1,663
9,CC(C)CC(=O)Nc1nc(-c2ccc3ccccc3c2)cs1,1140
10,CCc1nc2c(NC(=O)NCc3ccc(F)cc3)cccn2n1,788
11,CCn1nnc(NCc2ccc(-c3cccc(Cl)c3)o2)n1,1010
12,CCn1ccc2c(cc(C(=O)Nc3c(C)cccc3C)n2C)c1=O,721
13,Cc1ccccc1NC(=O)Cc1cn2cc(Cl)ccc2n1,620
14,O=C(Cn1cncc(-c2nc(-c3cccs3)cs2)c1=O)Nc1cccc(Cl)c1,941
15,Cc1ccc(-c2cnn(CC(=O)Nc3ccc(Br)cc3)c(=O)n2)cc1,907
16,COc1ccc(-n2c(=O)n(C)c(=O)c3cc(C(=O)NCc4ccc(C)cc4)cnc32)cc1,888
17,Cc1oc2ccn(Cc3ccc(F)cc3)c(=O)c2c1C(=O)NCC1CCCO1 (stereo unspecified),870
18,Cc1cccc(CC(=O)NC2CCN(c3cc(-c4cccs4)[nH]n3)C2)c1 (stereo unspecified),726
19,Cc1cc2c(cc1S(=O)(=O)NC(C)C)N(C(=O)C1CC1)CC2,808
20,CCC(C)NC(=O)NCCC1CCN(S(=O)(=O)c2ccccc2)CC1 (stereo unspecified),742
21,COc1cccc(CNC(=O)Cn2cnc3nc(N4CCC(C(=O)NC5CC5)CC4)sc3c2=O)c1,646
22,CCc1noc(NC(C)=O)c1-c1ccc(OC)c(S(=O)(=O)NC2CCCC2)c1,801
